Test results from ChEMBL document CHEMBL1147277, “Pentagalloylglucose, a xanthine oxidase inhibitor from a Paraguayan crude drug, "Molle-i" (Schinus terebinthifolius)” (J Nat Prod, 1989).

Experiments:
[1] = target: T1, Xanthine dehydrogenase/oxidase (Bos taurus, UniProt P80457); experiment: Inhibition of cow milk xanthine oxidase
[2] = target: T1, Xanthine dehydrogenase/oxidase; experiment: Inhibition of cow milk xanthine oxidase by Lineweaver-Burke plot analysis; conditions: read-out: Activity

T1 sequence (P80457 whole entry): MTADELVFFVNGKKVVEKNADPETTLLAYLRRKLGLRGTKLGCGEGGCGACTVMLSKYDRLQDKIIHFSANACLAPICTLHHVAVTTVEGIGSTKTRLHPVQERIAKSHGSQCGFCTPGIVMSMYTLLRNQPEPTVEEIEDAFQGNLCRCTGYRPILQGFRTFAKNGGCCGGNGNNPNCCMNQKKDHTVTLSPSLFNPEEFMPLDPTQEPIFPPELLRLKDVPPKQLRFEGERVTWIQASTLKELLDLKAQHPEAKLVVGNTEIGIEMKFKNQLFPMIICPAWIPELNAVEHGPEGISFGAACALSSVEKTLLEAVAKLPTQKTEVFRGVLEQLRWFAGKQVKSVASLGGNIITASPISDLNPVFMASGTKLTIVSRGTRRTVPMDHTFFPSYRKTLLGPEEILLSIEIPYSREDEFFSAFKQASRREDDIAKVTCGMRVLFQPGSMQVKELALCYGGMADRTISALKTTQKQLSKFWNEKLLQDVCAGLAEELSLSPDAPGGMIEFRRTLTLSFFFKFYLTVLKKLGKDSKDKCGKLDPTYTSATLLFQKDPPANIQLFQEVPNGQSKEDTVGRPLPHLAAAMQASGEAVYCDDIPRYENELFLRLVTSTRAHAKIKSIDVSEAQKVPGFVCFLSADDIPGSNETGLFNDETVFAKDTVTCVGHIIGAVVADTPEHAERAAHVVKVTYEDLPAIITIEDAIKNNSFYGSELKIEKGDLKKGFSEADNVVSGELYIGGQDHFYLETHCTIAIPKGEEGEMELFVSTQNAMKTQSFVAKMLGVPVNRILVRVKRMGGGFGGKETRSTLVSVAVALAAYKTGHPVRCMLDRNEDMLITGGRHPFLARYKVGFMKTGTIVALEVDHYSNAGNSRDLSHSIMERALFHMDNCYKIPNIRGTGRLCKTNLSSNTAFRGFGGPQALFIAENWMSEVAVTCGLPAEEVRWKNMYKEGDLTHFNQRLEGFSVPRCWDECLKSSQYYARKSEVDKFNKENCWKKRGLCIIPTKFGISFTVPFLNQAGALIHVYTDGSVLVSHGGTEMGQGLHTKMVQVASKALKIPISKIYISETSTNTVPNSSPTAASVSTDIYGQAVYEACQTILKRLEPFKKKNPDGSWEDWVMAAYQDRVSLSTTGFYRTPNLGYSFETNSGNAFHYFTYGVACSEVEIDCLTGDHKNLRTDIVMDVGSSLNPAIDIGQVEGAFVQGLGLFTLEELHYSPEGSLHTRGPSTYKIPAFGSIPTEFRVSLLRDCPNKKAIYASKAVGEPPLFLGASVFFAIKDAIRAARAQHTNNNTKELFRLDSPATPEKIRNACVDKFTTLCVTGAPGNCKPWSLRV

O=C(OC[C@H]1O[C@@H](OC(=O)c2cc(O)c(O)c(O)c2)[C@H](OC(=O)c2cc(O)c(O)c(O)c2)[C@@H](OC(=O)c2cc(O)c(O)c(O)c2)[C@@H]1OC(=O)c1cc(O)c(O)c(O)c1)c1cc(O)c(O)c(O)c1 [PENTAGALLOYL GLUCOSE] was tested, and the IC50 [1] was 3200 nM and the Ki [2] was 2120 nM.
